# Measured values: patent EP0863156A1, “Peptides useful as somatostatin antagonists” (American Cyanamid Company, priority 1997, dated 1998)
# Square brackets hold non-standard residues; d marks the D form. Peptide text beside a SMILES is read from it.
# Key:
# [1] = system: serum growth hormone (GH) levels; assay: In vivo serum growth hormone levels in anaesthetized rats (radioimmunoassay); set-up: species or system Male Sprague-Dawley rats; settings: for SGH: i.v., BIM 23014C 10 µg at 60 min
# Procedure: (§1) Evaluation in anaesthetized rats. Male Sprague-Dawley rats are anaesthetized with Sagatal and fitted so as to allow efficient intravenous treatment with control and test compounds as well as frequent blood sampling. Blood samples are tested for growth hormone (GH) levels by radioimmunoassay. Thirty minutes after the initiation of blood sampling, rats are given 5 µg, 25 µg or 50 µg of peptide 1.
# (§2) Peptide 1 is tested in combination with growth hormone releasing factor (GRF), to investigate whether said peptide may be mimicking the action of GRF. Anaesthetized rats are given GRF (1 µg) alone and in combination with peptide 1 (50 µg). […]
# SSTR2 [2] = target: T1, SSTR2 (Rattus norvegicus, UniProt P30680); assay: cAMP accumulation in forskolin-stimulated GH4C1/SSTR2 cells (SPA radioimmunoassay); assay type: cell-based; set-up: expressed in transfected cells; host or cells: GH4C1 rat pituitary tumor cells
# Procedure: This is the basis of a common assay for SRIF agonists and antagonists, whereby SRIF agonists reduce artificially stimulated cAMP levels, and SRIF antagonists reverse the effect of SRIF. […] This increases the response to SRIF and provides a greater dynamic range for the measurement of SRIF antagonist activity.
# Stimulation of cells. GH4C1/SSTR2 cells, grown in DMEM with 10% bovine serum, are released from a tissue culture dish by incubation for several minutes at 37° C with PBS containing 0.5 mM EDTA. Cells are washed in induction buffer (PBS containing 100 µM IBMX (an inhibitor of cAMP breakdown) and 2 mM CaCl2) at room temperature, and resuspended at 2 x 10^6/mL in induction buffer. Into each well of a 96-well tray are added 50 µL of a 2 X concentration of stimulants in induction buffer. […] To initiate stimulation of the cells, 50 µL (100,000) cells are added to each well, mixed by shaking 10 seconds on a plate shaker and placed at 37° C for 15 minutes. Stimulation is arrested and cells are lysed by adding 15 µL 0.33 N HCI to each well and incubating the plate for 30 minutes at 37° C. Samples are neutralized by addition of 15 µL 0.25 N NaOH/50 mM Hepes pH 7.4. Baseline cAMP levels are determined in samples with no added forskolin or SRIF, and each treatment is performed in triplicate.
# cAMP assay. To measure accumulated cAMP in the samples, a radioimmunoassay is employed. The scintillation proximity assay (SPA, Amersham, Arlington Heights, IL) allows the rapid measurement of ^125I cAMP bound to a specific antibody without separating bound radioligand from free radioligand. Each of the following reagents (15 µL) are added per well in a 96-well tray: supernatants from the cell stimulation; ^125I cAMP; SPA beads conjugated to monkey anti-rabbit IgG antibodies; and rabbit anti-cAMP antibodies. For the standard curve, known amounts of cAMP (0.2 - 12.8 pmol) are added in place of cell supernatants. The 96-well tray is sealed, shaken at room temperature overnight and measured for bound radioligand in a MicroBeta liquid scintillation counter (Wallac, Gaithersburg. MD).
# The intrinsic activity of an SRIF antagonist is the percent reversal of the SSTR2 activation by SRIF or MK678, wherein 0% is defined by cAMP levels in samples treated with forskolin plus SRIF or MK678 and 100% is the cAMP level measured after treatment with forskolin alone. Therefore, increased intrinsic activity of a test compound indicates increased antagonist activity of said test compound.
# An inverse agonist is a compound that is not only a pure antagonist (i.e. lacking agonist activity), but also blocks the constitutive activity of an unoccupied receptor. One indication of inverse agonist activity is the ability of a SRIF antagonist to increase cAMP levels in the absence of added SRIF.
# SSTR2 [3] = target: T1, SSTR2; assay: Competitive binding of 125I labeled S-14 to membranes of cells expressing transfected SSTR2 (SPA); set-up: expressed in transfected cells
# Procedure: Membrane preparation. Tissue culture cell lines expressing transfected cDNA clones of SSTR2 and SSTR5 are used as a source of plasma membranes which specifically bind ^125I labeled S-14 (Amersham, Arlington Heights, IL). Cells are removed from culture dishes by incubation at 4°C for 5 minutes in PBS containing 1 mM EDTA, spun down (2,000 rpm, 5') and resuspended in 15 mL homogenization buffer (1 mM sodium bicarbonate pH 7.2, 1 mM EDTA, 1 mM EGTA and the following protease inhibitors: leupeptin and aprotenin at 5 µg/mL and benzamidine and bacitracin at 100 µg/mL). Cells are given 20 strokes with a Dounce homogenizer on ice and spun at 2000 rpm for 10 minutes. Membranes are isolated from the supernatant by centrifugation at 17,000 rpm for 30 minutes. The membrane pellet is washed once in 15 mL homogenization buffer and once in storage buffer (25 mM Tris pH 7.4 containing protease inhibitors). […] The membrane pellet is resuspended in storage buffer, measured for protein concentration (BioRad, CA) and stored at -80°C.
# Binding assay. […] Bound radioligand is determined by counting in a Microbeta Liquid Scintillation counter (Wallac, Gaithersburg, MD). Binding data is plotted and IC50 and Ki values are calculated for test compounds using Prism software (Graphpad Software Inc., San Diego, CA) and are shown in Table V. Binding is expressed as Ki, µM.
# Male Sprague-Dawley rats = assay: Serum growth hormone levels in anaesthetized rats after intravenous treatment (radioimmunoassay); assay type: in vivo; settings: for SGH: GRF 1 µg + Peptide 1 50 µg at 30 min
# Procedure: as §1, §2
# T1 sequence (P30680 whole entry): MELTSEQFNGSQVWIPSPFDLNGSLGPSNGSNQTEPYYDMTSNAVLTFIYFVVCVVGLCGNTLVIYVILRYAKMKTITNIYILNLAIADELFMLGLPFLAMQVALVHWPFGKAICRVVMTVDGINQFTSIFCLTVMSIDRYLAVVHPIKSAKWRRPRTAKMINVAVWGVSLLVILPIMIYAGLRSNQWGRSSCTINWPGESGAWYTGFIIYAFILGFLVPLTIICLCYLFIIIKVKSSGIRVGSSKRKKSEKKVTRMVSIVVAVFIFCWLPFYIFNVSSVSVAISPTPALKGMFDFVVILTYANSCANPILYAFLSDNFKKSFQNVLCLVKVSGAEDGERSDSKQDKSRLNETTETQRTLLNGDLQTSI
compound,measurement,setting,value
"CC[C@@H](C)[C@@H](NC(=O)[C@@H](Cc1ccccc1)NC(=O)[C@@H](Cc1c[nH]cn1)NC(C)=O)C(=O)N[C@H](CCCNC(=N)N)C(=O)N[C@H](Cc1c[nH]c2ccccc12)C(=O)N[C@H](Cc1ccccc1)C(N)=O [Peptide 1, Ac-D-His-D-Phe-D-Ile-D-Arg-D-Trp-D-Phe-NH2] (Ac-[dH][dF][dI][dR][dW][dF]-NH2)",effect upon GH levels,"[1]; 5 µg, 25 µg or 50 µg of peptide 1 thirty minutes after initiation of blood sampling",dose related effect upon GH levels
same,serum GH levels after first dose,[1]; highest dose (50 µg) of peptide 1 at 30 min,significant increase in serum GH levels
same,SGH,"[1]; Peptide 1 5 µg at 30 and 90 min, time 0 min (before dosing)",17.0 ng/mL
same,SGH,"[1]; Peptide 1 5 µg at 30 and 90 min, time 15 min (before dosing)",13.6 ng/mL
same,SGH,"[1]; Peptide 1 5 µg at 30 and 90 min, time 30 min (time of first dose)",12.2 ng/mL
same,SGH,"[1]; Peptide 1 5 µg at 30 and 90 min, time 35 min",17.5 ng/mL
same,SGH,"[1]; Peptide 1 5 µg at 30 and 90 min, time 40 min",14.9 ng/mL
same,SGH,"[1]; Peptide 1 5 µg at 30 and 90 min, time 45 min",15.7 ng/mL
same,SGH,"[1]; Peptide 1 5 µg at 30 and 90 min, time 60 min (time of BIM dose)",11.4 ng/mL
same,SGH,"[1]; Peptide 1 5 µg at 30 and 90 min, time 75 min",7.0 ng/mL
same,SGH,"[1]; Peptide 1 5 µg at 30 and 90 min, time 90 min (time of second dose)",2.4 ng/mL
same,SGH,"[1]; Peptide 1 5 µg at 30 and 90 min, time 95 min",3.1 ng/mL
same,SGH,"[1]; Peptide 1 5 µg at 30 and 90 min, time 100 min",1.7 ng/mL
same,SGH,"[1]; Peptide 1 5 µg at 30 and 90 min, time 105 min",1.7 ng/mL
same,SGH,"[1]; Peptide 1 5 µg at 30 and 90 min, time 135 min",1.1 ng/mL
same,SGH,"[1]; Peptide 1 25 µg at 30 and 90 min, time 0 min (before dosing)",19.2 ng/mL
same,SGH,"[1]; Peptide 1 25 µg at 30 and 90 min, time 15 min (before dosing)",17.3 ng/mL
same,SGH,"[1]; Peptide 1 25 µg at 30 and 90 min, time 30 min (time of first dose)",16.6 ng/mL
same,SGH,"[1]; Peptide 1 25 µg at 30 and 90 min, time 35 min",18.4 ng/mL
same,SGH,"[1]; Peptide 1 25 µg at 30 and 90 min, time 40 min",17.5 ng/mL
same,SGH,"[1]; Peptide 1 25 µg at 30 and 90 min, time 45 min",14.0 ng/mL
same,SGH,"[1]; Peptide 1 25 µg at 30 and 90 min, time 60 min (time of BIM dose)",13.1 ng/mL
same,SGH,"[1]; Peptide 1 25 µg at 30 and 90 min, time 75 min",6.8 ng/mL
same,SGH,"[1]; Peptide 1 25 µg at 30 and 90 min, time 90 min (time of second dose)",5.1 ng/mL
same,SGH,"[1]; Peptide 1 25 µg at 30 and 90 min, time 95 min",11.4 ng/mL
same,SGH,"[1]; Peptide 1 25 µg at 30 and 90 min, time 100 min",10.5 ng/mL
same,SGH,"[1]; Peptide 1 25 µg at 30 and 90 min, time 105 min",7.9 ng/mL
same,SGH,"[1]; Peptide 1 25 µg at 30 and 90 min, time 135 min",5.2 ng/mL
same,SGH,"[1]; Peptide 1 50 µg at 30 and 90 min, time 0 min (before dosing)",22.7 ng/mL
same,SGH,"[1]; Peptide 1 50 µg at 30 and 90 min, time 15 min (before dosing)",17.0 ng/mL
same,SGH,"[1]; Peptide 1 50 µg at 30 and 90 min, time 30 min (time of first dose)",19.7 ng/mL
same,SGH,"[1]; Peptide 1 50 µg at 30 and 90 min, time 35 min",50.2 ng/mL
same,SGH,"[1]; Peptide 1 50 µg at 30 and 90 min, time 40 min",23.4 ng/mL
same,SGH,"[1]; Peptide 1 50 µg at 30 and 90 min, time 45 min",15.5 ng/mL
same,SGH,"[1]; Peptide 1 50 µg at 30 and 90 min, time 60 min (time of BIM dose)",17.1 ng/mL
same,SGH,"[1]; Peptide 1 50 µg at 30 and 90 min, time 75 min",3.5 ng/mL
same,SGH,"[1]; Peptide 1 50 µg at 30 and 90 min, time 90 min (time of second dose)",1.9 ng/mL
same,SGH,"[1]; Peptide 1 50 µg at 30 and 90 min, time 95 min",67.3 ng/mL
same,SGH,"[1]; Peptide 1 50 µg at 30 and 90 min, time 100 min",31.8 ng/mL
same,SGH,"[1]; Peptide 1 50 µg at 30 and 90 min, time 105 min",10.5 ng/mL
same,SGH,"[1]; Peptide 1 50 µg at 30 and 90 min, time 135 min",2.6 ng/mL
same,serum GH levels after second dose,"[1]; second dose of peptide 1, highest dose (50 µg), after BIM 23014C",even greater increase in serum GH levels
same,cAMP,SSTR2 [2]; Forskolin 1.25 µM + MK 678 10 nM + Peptide 1 1 µM (forskolin + MK 678 alone 0.91),1.14 pM per 4 x 10^4 cells
same,cAMP,SSTR2 [2]; Forskolin 1.25 µM + MK 678 10 nM + Peptide 1 10 µM (forskolin + MK 678 alone 0.91),2.69 pM per 4 x 10^4 cells
same,cAMP,SSTR2 [2]; Forskolin 1.25 µM + MK 678 10 nM + Peptide 1 50 µM (forskolin + MK 678 alone 0.91),3.32 pM per 4 x 10^4 cells
same,cAMP,"SSTR2 [2]; Forskolin 1.25 µM, no MK 678, Peptide 1 1 µM (forskolin alone 3.04; baseline 0.36)",2.57 pM per 4 x 10^4 cells
same,cAMP,"SSTR2 [2]; Forskolin 1.25 µM, no MK 678, Peptide 1 10 µM (forskolin alone 3.04; baseline 0.36)",3.05 pM per 4 x 10^4 cells
same,cAMP,"SSTR2 [2]; Forskolin 1.25 µM, no MK 678, Peptide 1 50 µM (forskolin alone 3.04; baseline 0.36)",3.33 pM per 4 x 10^4 cells
same,Emax at 2 µM,"SSTR2 [2]; GH4-C1, test peptide 2 µM, percent reversal of SSTR2 activation by SRIF or MK678, 0% = forskolin plus agonist, 100% = forskolin alone, read-out: cAMP Assay Intrinsic activity",85.2%
same,forskolin-stimulated cAMP levels in the absence of SRIF (inverse agonist activity),"SSTR2 [2]; GH4C1/SSTR2 cells, no added SRIF, Figure 1 (Table II) and Figure 2 (Table IV)",causes an increase in forskolin-stimulated cAMP levels even in the absence of SRIF
same,parallelism of the dose response curves of S-14 or MK678 with and without peptide 1,"SSTR2 [2]; forskolin stimulated cells, increasing doses of S-14 or MK678, Figure 2 (Table IV)",directly competing with the SRIF agonists
same,Ki,SSTR2 [3],140 nM
same,SGH,Male Sprague-Dawley rats; time 35 min,195.8 ng/mL
same,SGH,Male Sprague-Dawley rats; time 40 min,176.2 ng/mL
same,SGH,Male Sprague-Dawley rats; time 45 min,40.5 ng/mL
same,GH levels,"Male Sprague-Dawley rats; GRF (1 µg) in combination with peptide 1 (50 µg), compared with GRF alone",rise faster and higher than with GRF alone
